From patent US20220153746A1, “NITROGEN OXIDE-DONATING PDE-5 AND/OR PDE-6 INHIBITOR COMPOUNDS, AND USES THEREOF” (ILDONG PHARMACEUTICAL CO., LTD., priority 2020, published 2022)

Test: Metabolic stability in human liver microsomes
Assay type: in vitro ADME
Conditions: 37° C., 0-60 minutes
Experimental: This example illustrates the metabolic stability of selected compounds in human liver microsomes samples.
Both test and control compound solutions were prepared by diluting 5 μL of the respective stock solutions (10 mM in DMSO) containing either the test or control compound with 495 μL of acetonitrile (ACN) to give intermediate solutions with concentrations of 100 μM (99% ACN).
β-Nicotinamide adenine dinucleotide phosphate tetrasodium salt (NADPH.4Na) was purchased from BONTAC (cat. No. BT04). The NADPH working solution (10 unit/mL) was prepared by combining the appropriate amount of NADPH powder and a MgCl2 solution (10 mM) to give final concentration in the reaction system of 1 unit/mL.
The appropriate concentrations of the microsome working solutions were prepared in 100 mM potassium phosphate buffer.
Cold (4° C.) acetonitrile solution containing 200 ng/mL tolbutamide and 200 ng/mL labetalol (internal standard) was used as the stop solution.
Liver microsomes solution was diluted to 0.56 mg/mL in 100 mM phosphate buffer, and 445 μL of this solution was transferred into pre-warmed (10 minutes) “incubation” plates T60 and NCF60; the “incubation” plates T60 and NCF60 were pre-warmed for 10 minutes at 37° C. with constant shaking.
54 μL of the liver microsome solutions was transferred to the blank plate, followed by addition of 6 μL of the NAPDH cofactor solution and 180 μL of the quenching solution to the same blank plate.
5 μL of the compound working solution (100 μM concentration) was next added to into the “incubation” plates (T60 and NCF60) containing microsomes and mixed 3 times thoroughly. For the NCF60 plate, 50 μL of the buffer solution was added, mixed 3 times thoroughly, and incubated at 37° C. for 60 minutes under constant shaking.
In the “Quenching” plate at T0 (T=0 min), 180 μL of quenching solution and 6 μL of the NAPDH cofactor solution were added, and the resulting plate was chilled to prevent evaporation.
In the T60 plate, after it was thoroughly mixed, 54 μL of the mixture was immediately transferred to the “quenching” plate for the 0-minute time point, followed by addition of 44 μL of NAPDH cofactor solution to the incubation plate (T60). The resulting mixture was then incubated at 37° C. for 60 minutes under constant shaking. At time points of 5, 10, 20, 30 and 60 minutes, 180 μL of the quenching solution was added to the “quenching” plates, followed by serial transfer of 60 μL of the mixture (per time point) from the T60 plate to the “Quenching” plates.
For the NCF60 plates, 60 μL of the sample solution was transferred from the NCF60 incubation plate to the “Quenching” plate containing quenching solution at T=60 min time point. […]

SMILES	CLint scaled at 1 µM
CCCc1nn(C)c2c(=O)[nH]c(-c3cc(S(=O)(=O)N4CC(CCCO)C4)ccc3OCC)nc12 [Compound 4, 5-(2-ethoxy-5-((3-(3-hydroxypropyl)azetidin-1-yl)sulfonyl)phenyl)-1-methyl-3-propyl-1,6-dihydro-7H-pyrazolo[4,3-d]pyrimidin-7-one]	357 mL/min/kg
CCCc1nn(C)c2c(=O)[nH]c(-c3cc(S(=O)(=O)N4CC(CCCO[N+](=O)[O-])C4)ccc3OCC)nc12 [Compound 18, 3-(1-((4-ethoxy-3-(1-methyl-7-oxo-3-propyl-6,7-dihydro-1H-pyrazolo[4,3-d]pyrimidin-5-yl)phenyl)sulfonyl)azetidin-3-yl)propyl nitrate]	934 mL/min/kg
